Test results taken from ChEMBL document CHEMBL1128008, “Synthesis of etoposide phosphate, BMY-40481: A water-soluble clinically active prodrug of etoposide” (Bioorg Med Chem Lett, 1994).
Calls of active or inactive are those of the source. No cut-off for these calls is given here.

Key:
[1] = system: Mus musculus; assay: Antitumor activity administered ip, po was determined in murine model; Active; assay type: functional, organism-based
[2] = system: Homo sapiens; assay: Antitumor activity administered ip was determined in human model; Active; assay type: functional, organism-based
[3] = Plasma half life in monkey; assay type: ADME; settings: cercopithecidae
[4] = Plasma half life in human; assay type: ADME, cell-free
[5] = system: P388; assay: Inhibitory activity administered iv was determined against implanted P388 leukemia cells; Active; assay type: functional, organism-based; settings: Mus musculus
[6] = Plasma half life in mouse; assay type: ADME, organism-based
[7] = system: B16; assay: Inhibitory activity administered was determined against sc B16 melanoma cells; Active; assay type: functional, organism-based; settings: Mus musculus
[8] = system: L1210; assay: Inhibitory activity administered was determined against ic L1210 leukemia cells; Active; assay type: functional; settings: Mus musculus
[9] = Plasma half life in dog; assay type: ADME, organism-based, Canis lupus familiaris
[10] = system: P388; assay: Inhibitory activity administered was determined against ic P388 leukemia cells; Active; assay type: functional; settings: Mus musculus

## COc1cc(C2c3cc4c(cc3[C@@H](O[C@@H]3O[C@@H]5CO[C@@H](C)O[C@H]5[C@H](O)[C@H]3O)[C@H]3COC(=O)[C@H]23)OCO4)cc(OC)c1O (single isomer, unassigned)
[1]
  Activity: Active
[2]
  Activity: Active

## COc1cc([C@H]2c3cc4c(cc3[C@@H](O[C@@H]3O[C@H]5CO[C@@H](C)O[C@H]5[C@H](O)[C@@H]3O)[C@H]3COC(=O)[C@H]23)OCO4)cc(OC)c1OP(=O)([O-])[O-].[Na+].[Na+]
[3]
  half-life: 39 min
[4]
  half-life: 45 min
[5]
  Activity: Active
[6]
  half-life: 39 min
[7]
  Activity: Active
[8]
  Activity: Active
[2]
  Activity: Active
[9]
  half-life: 124 min
[10]
  Activity: Active
